From ChEMBL document CHEMBL3352670, “Synthesis, biological evaluation and molecular modeling of 1,3,4-thiadiazol-2-amide derivatives as novel antitubulin agents” (Bioorg Med Chem, 2014)
One block for each molecule: values may come before it.

Tests used:
[1] = test system: A549; assay: Antiproliferative activity against human A549 cells after 48 hrs by MTT assay; assay type: functional, cell-based; settings: A549, 48 h
[2] = test system: MCF7; assay: Antiproliferative activity against human MCF7 cells after 48 hrs by MTT assay; assay type: functional, cell-based; settings: MCF7, 48 h
[3] = test system: HepG2; assay: Antiproliferative activity against […] HepG2 cells after 48 hrs by MTT assay; assay type: functional, cell-based; settings: Homo sapiens, HepG2, 48 h
[4] = biological target: Tubulin (Bos taurus, UniProt Q6B856+Q862L2+Q862F3); assay: Inhibition of bovine brain tubulin polymerization after 20 mins by turbidimetric method
[5] = test system: A549; assay: Induction of apoptosis in human A549 cells assessed as viable cells at 0.01 uM after 24 hrs using Annexin-V/PI staining by flow cytometry (reference value: 91.0 %); assay type: functional; settings: A549, 24 h, read-out: Activity
[6] = test system: A549; assay: Induction of apoptosis in human A549 cells assessed as early apoptotic cells at 0.01 uM after 24 hrs using Annexin-V/PI staining by flow cytometry (reference value: 1.92 %); assay type: functional
[7] = test system: A549; assay: Induction of apoptosis in human A549 cells assessed as late apoptotic cells at 0.01 uM after 24 hrs using Annexin-V/PI staining by flow cytometry (reference value: 4.01 %); assay type: functional
[8] = test system: A549; assay: Induction of apoptosis in human A549 cells assessed as necrotic cells at 0.01 uM after 24 hrs using Annexin-V/PI staining by flow cytometry (reference value: 3.11 %); assay type: functional
[9] = test system: A549; assay: Induction of apoptosis in human A549 cells assessed as viable cells at 0.05 uM after 24 hrs using Annexin-V/PI staining by flow cytometry (reference value: 91.0 %); assay type: functional; settings: A549, 24 h, read-out: Activity
[10] = test system: A549; assay: Induction of apoptosis in human A549 cells assessed as early apoptotic cells at 0.05 uM after 24 hrs using Annexin-V/PI staining by flow cytometry (reference value: 1.92 %); assay type: functional
[11] = test system: A549; assay: Induction of apoptosis in human A549 cells assessed as late apoptotic cells at 0.05 uM after 24 hrs using Annexin-V/PI staining by flow cytometry (reference value: 4.01 %); assay type: functional
[12] = test system: A549; assay: Induction of apoptosis in human A549 cells assessed as necrotic cells at 0.05 uM after 24 hrs using Annexin-V/PI staining by flow cytometry (reference value: 3.11 %); assay type: functional
[13] = test system: A549; assay: Induction of apoptosis in human A549 cells assessed as viable cells at 0.1 uM after 24 hrs using Annexin-V/PI staining by flow cytometry (reference value: 91.0 %); assay type: functional; settings: A549, 24 h, read-out: Activity
[14] = test system: A549; assay: Induction of apoptosis in human A549 cells assessed as early apoptotic cells at 0.1 uM after 24 hrs using Annexin-V/PI staining by flow cytometry (reference value: 1.92 %); assay type: functional
[15] = test system: A549; assay: Induction of apoptosis in human A549 cells assessed as late apoptotic cells at 0.1 uM after 24 hrs using Annexin-V/PI staining by flow cytometry (reference value: 4.01 %); assay type: functional
[16] = test system: A549; assay: Induction of apoptosis in human A549 cells assessed as necrotic cells at 0.1 uM after 24 hrs using Annexin-V/PI staining by flow cytometry (reference value: 3.11 %); assay type: functional
[17] = test system: A549; assay: Cell cycle arrest in human A549 cells assessed as G2/M arrest after 48 hrs by flow cytometry; assay type: functional, cell-based
[18] = test system: A549; assay: Cell cycle arrest in human A549 cells assessed as accumulation at G1 phase at 0.01 uM after 48 hrs by flow cytometry (reference value: 79.42 %); assay type: functional
[19] = test system: A549; assay: Cell cycle arrest in human A549 cells assessed as accumulation at G2 phase at 0.01 uM after 48 hrs by flow cytometry (reference value: 6.75 %); assay type: functional
[20] = test system: A549; assay: Cell cycle arrest in human A549 cells assessed as accumulation at S phase at 0.01 uM after 48 hrs by flow cytometry (reference value: 13.83 %); assay type: functional
[21] = test system: A549; assay: Cell cycle arrest in human A549 cells assessed as accumulation at G1 phase at 0.05 uM after 48 hrs by flow cytometry (reference value: 79.42 %); assay type: functional
[22] = test system: A549; assay: Cell cycle arrest in human A549 cells assessed as accumulation at G2 phase at 0.05 uM after 48 hrs by flow cytometry (reference value: 6.75 %); assay type: functional
[23] = test system: A549; assay: Cell cycle arrest in human A549 cells assessed as accumulation at S phase at 0.05 uM after 48 hrs by flow cytometry (reference value: 13.83 %); assay type: functional
[24] = test system: A549; assay: Cell cycle arrest in human A549 cells assessed as accumulation at G1 phase at 0.1 uM after 48 hrs by flow cytometry (reference value: 79.42 %); assay type: functional
[25] = test system: A549; assay: Cell cycle arrest in human A549 cells assessed as accumulation at G2 phase at 0.1 uM after 48 hrs by flow cytometry (reference value: 6.75 %); assay type: functional
[26] = test system: A549; assay: Cell cycle arrest in human A549 cells assessed as accumulation at S phase at 0.1 uM after 48 hrs by flow cytometry (reference value: 13.83 %); assay type: functional

SMILES: COc1cc(/C=C/c2nnc(NC(=O)c3ccc(Br)cc3)s2)c(Br)c(OC)c1OC
IC50 [1]: 160 nM
IC50 [2]: 320 nM
IC50 [3]: 200 nM
IC50 [4]: 15.09 µM

SMILES: COc1cc(/C=C/c2nnc(NC(=O)c3cccc(Cl)c3)s2)c(Br)c(OC)c1OC
IC50 [1]: 70 nM
IC50 [2]: 230 nM
IC50 [3]: 150 nM
IC50 [4]: 5.68 µM

SMILES: COc1cc(/C=C/c2nnc(NC(=O)c3ccc(Cl)cc3)s2)c(Br)c(OC)c1OC
IC50 [1]: 140 nM
IC50 [2]: 280 nM
IC50 [3]: 180 nM
IC50 [4]: 11.81 µM

SMILES: COc1cc(/C=C/c2nnc(NC(=O)c3cc(OC)c(OC)c(OC)c3Br)s2)c(Br)c(OC)c1OC
IC50 [1]: 130 nM
IC50 [2]: 470 nM
IC50 [3]: 200 nM
IC50 [4]: 16.79 µM

SMILES: COc1cc(/C=C/c2nnc(NC(=O)c3cccc(Br)c3)s2)c(Br)c(OC)c1OC
IC50 [1]: 80 nM
IC50 [2]: 260 nM
IC50 [3]: 160 nM
IC50 [4]: 6.02 µM

SMILES: COc1cc(/C=C/c2nnc(NC(=O)c3cccc(O)c3)s2)cc(OC)c1OC
IC50 [1]: 190 nM
IC50 [2]: 460 nM
IC50 [3]: 260 nM
IC50 [4]: 23.67 µM

SMILES: COc1cc(/C=C/c2nnc(NC(=O)c3cccc(O)c3)s2)c(Br)c(OC)c1OC
IC50 [1]: 120 nM
IC50 [2]: 360 nM
IC50 [3]: 220 nM
IC50 [4]: 13.44 µM

SMILES: COc1cccc(C(=O)Nc2nnc(/C=C/c3cc(OC)c(OC)c(OC)c3Br)s2)c1
IC50 [1]: 60 nM
IC50 [2]: 170 nM
IC50 [3]: 120 nM
IC50 [4]: 3.08 µM

SMILES: COc1ccc(/C=C/c2nnc(NC(=O)c3cc(OC)c(OC)c(OC)c3Br)s2)cc1
IC50 [1]: 180 nM
IC50 [2]: 550 nM
IC50 [3]: 210 nM
IC50 [4]: 28.58 µM

SMILES: COc1cc(/C=C/c2nnc(NC(=O)c3ccc(F)cc3)s2)c(Br)c(OC)c1OC
IC50 [1]: 190 nM
IC50 [2]: 380 nM
IC50 [3]: 240 nM
IC50 [4]: 15.63 µM

SMILES: COc1ccc(/C=C\c2cc(OC)c(OC)c(OC)c2)cc1O [COMBRETASTATIN A4]
IC50 [3]: 160 nM

SMILES: COc1ccc(/C=C/c2nnc(NC(=O)c3ccccc3OC)s2)cc1OC
IC50 [1]: 170 nM
IC50 [2]: 540 nM
IC50 [3]: 260 nM
IC50 [4]: 29.44 µM

SMILES: COc1ccc(C(=O)Nc2nnc(/C=C/c3cc(OC)c(OC)c(OC)c3Br)s2)cc1
IC50 [1]: 150 nM
IC50 [2]: 560 nM
IC50 [3]: 220 nM
IC50 [4]: 18.79 µM

SMILES: COc1ccc(/C=C/c2nnc(NC(=O)c3cc(OC)c(OC)c(OC)c3)s2)cc1OC
IC50 [1]: 160 nM
IC50 [2]: 560 nM
IC50 [3]: 220 nM
IC50 [4]: 28.06 µM

Now from value to molecule, other results behind:

IC50 [1]: 110 nM
IC50 [2]: 290 nM
IC50 [3]: 180 nM
IC50 [4]: 9.83 µM
SMILES: COc1cc(/C=C/c2nnc(NC(=O)c3ccccc3)s2)c(Br)c(OC)c1OC

IC50 [1]: 130 nM
IC50 [2]: 480 nM
IC50 [3]: 250 nM
IC50 [4]: 15.5 µM
SMILES: COc1ccc(C(=O)Nc2nnc(/C=C/c3cc(OC)c(OC)c(OC)c3)s2)cc1OC

IC50 [1]: 170 nM
IC50 [2]: 600 nM
IC50 [3]: 230 nM
IC50 [4]: 17.91 µM
SMILES: COc1ccccc1C(=O)Nc1nnc(/C=C/c2cc(OC)c(OC)c(OC)c2Br)s1

IC50 [1]: 30 nM
IC50 [2]: 60 nM
IC50 [3]: 50 nM
IC50 [4]: 1.73 µM
SMILES: COc1ccc(C(=O)Nc2nnc(/C=C/c3cc(OC)c(OC)c(OC)c3Br)s2)cc1OC
viability at 0.01 µM [5]: 84.8%
Activity [6]: 3.41%
Activity [7]: 7.96%
Activity [8]: 3.86%
viability at 0.05 µM [9]: 77.8%
Activity [10]: 5.48%
Activity [11]: 12.7%
Activity [12]: 4.08%
viability at 0.1 µM [13]: 61.8%
Activity [14]: 12.9%
Activity [15]: 22%
Activity [16]: 3.21%
Activity [17]: Dose-dependent effect
Activity [18]: 73.18%
Activity [19]: 7.14%
Activity [20]: 19.68%
Activity [21]: 37.17%
Activity [22]: 53.34%
Activity [23]: 9.49%
Activity [24]: 0%
Activity [25]: 89.26%
Activity [26]: 10.74%

IC50 [1]: 80 nM
IC50 [2]: 340 nM
IC50 [3]: 170 nM
IC50 [4]: 7.08 µM
SMILES: COc1cc(/C=C/c2nnc(NC(=O)c3cccc(F)c3)s2)c(Br)c(OC)c1OC

IC50 [1]: 150 nM
IC50 [2]: 480 nM
IC50 [3]: 270 nM
IC50 [4]: 22.5 µM
SMILES: COc1cccc(C(=O)Nc2nnc(/C=C/c3cc(OC)c(OC)c(OC)c3)s2)c1

IC50 [1]: 210 nM
IC50 [2]: 370 nM
IC50 [3]: 250 nM
IC50 [4]: 19.45 µM
SMILES: COc1cc(/C=C/c2nnc(NC(=O)c3ccccc3Br)s2)c(Br)c(OC)c1OC

IC50 [1]: 160 nM
IC50 [2]: 490 nM
IC50 [3]: 280 nM
IC50 [4]: 23.94 µM
SMILES: COc1cc(/C=C/c2nnc(NC(=O)c3cc(OC)c(OC)c(OC)c3)s2)cc(OC)c1OC

IC50 [1]: 140 nM
IC50 [2]: 510 nM
IC50 [3]: 210 nM
IC50 [4]: 16.95 µM
SMILES: COc1cc(C(=O)Nc2nnc(/C=C/c3cc(OC)c(OC)c(OC)c3Br)s2)cc(OC)c1OC

IC50 [1]: 190 nM
IC50 [2]: 590 nM
IC50 [3]: 210 nM
IC50 [4]: 30.36 µM
SMILES: COc1cccc(/C=C/c2nnc(NC(=O)c3cc(OC)c(OC)c(OC)c3Br)s2)c1
